Counter-ions that a name gives are not always drawn.
Tests used:
[1] = oral administration to mice: plasma level of non-ester compound (compound [II]), AUC and bioavailability; type: in vivo; details: compound [II] in plasma, 100 mg/kg (in terms of compound [II]), zero to 2 hours
[2] = test system: Proteus mirabilis; details: gram-negative bacteria, Antimicrobial Agent and Chemotherapy 14, 557-568 (1978); cited from earlier work
[3] = test system: Proteus vulgaris; details: gram-negative bacteria, Antimicrobial Agent and Chemotherapy 14, 557-568 (1978); cited from earlier work
[4] = mouse, in vivo, sc, 120 min
Procedure: At 0.25, 0.5, 1.0 and 2.0 hours after administration, the concentration of compound [II] in plasma of the mouse is measured by the cup method using Proteus mirabilis Eb 313 as the test organism and the area under plasma concentration-time curve from zero to 2 hours (AUC) is calculated.
The compound [II ] was subcutaneously applied and AUC was calculated in the same manner as above.

[5] = test system: Staphylococcus aureus; details: gram-positive bacteria, Antimicrobial Agent and Chemotherapy 14, 557-568 (1978); cited from earlier work
[6] = test system: proteus morganii; details: gram-negative bacteria, Antimicrobial Agent and Chemotherapy 14, 557-568 (1978); cited from earlier work
[7] = test system: Klebsiella pneumoniae; details: gram-negative bacteria, Antimicrobial Agent and Chemotherapy 14, 557-568 (1978); cited from earlier work
[8] = test system: Escherichia coli; details: gram-negative bacteria, Antimicrobial Agent and Chemotherapy 14, 557-568 (1978); cited from earlier work

| SMILES | AUC [1] [ng·h/mL] | also measured |
| --- | --- | --- |
| CCC(OC(=O)OC1CCCCC1)OC(=O)C1=C(CSc2nnnn2CCN(C)C)CS[C@@H]2[C@H](NC(=O)Cc3csc(N)n3)C(=O)N12 (stereo partly drawn) [Example 5-2] | 31300 | – |
| CN(C)CCn1nnnc1SCC1=C(C(=O)OCOC(=O)OC2CCCCCCCCCCC2)N2C(=O)[C@@H](NC(=O)Cc3csc(N)n3)[C@H]2SC1 [Example 1-5] | 33100 | – |
| CC1CCCC(OC(=O)OC(C)OC(=O)C2=C(CSc3nnnn3CCN(C)C)CS[C@@H]3[C@H](NC(=O)Cc4csc(N)n4)C(=O)N23)C1 (stereo partly drawn) [Example 2-10] | 30100 | – |
| CC(OC(=O)OC1CCCCC1)OC(=O)C1=C(CSc2nnnn2CCN(C)C)CS[C@@H]2[C@H](NC(=O)Cc3csc(N)n3)C(=O)N12.Cl.Cl (stereo partly drawn) [Example 2-1, 1-(Cyclohexyloxycarbonyloxy)ethyl 7β-[2-(2-aminothiazol-4-yl)acetamido]-3-[[[1-(2-dimethylaminoethyl)-1H-tetrazol-5-yl]thio]methyl]ceph-3-em-4-carboxylate dihydrochloride] | 30000 | – |
| CN(C)CCn1nnnc1SCC1=C(C(=O)OCOC(=O)OC2CCCCC2)N2C(=O)[C@@H](NC(=O)Cc3csc(N)n3)[C@H]2SC1 [Example 1-1, Cyclohexyloxycarbonyloxy 7β-[2-Aminothiazol-4-yl)Acetamido]-3-[[[1-(2-Dimethylaminoethyl)-1H-Tetrazol-5-yl]Thio]Methyl]Ceph-3-Em-4-Carboxylate Dihydrochloride] | 30000 | – |
| CC(OC(=O)OC1CCCCC1C)OC(=O)C1=C(CSc2nnnn2CCN(C)C)CSC2C(NC(=O)Cc3csc(N)n3)C(=O)N12 (stereo not drawn) [Example 2-12] | – | AUC ([1]; 100 mg/kg): 35500 ng·h/mL |
| CCCC(OC(=O)OC1CCCCC1)OC(=O)C1=C(CSc2nnnn2CCN(C)C)CS[C@@H]2[C@H](NC(=O)Cc3csc(N)n3)C(=O)N12 (stereo partly drawn) [Example 5-7] | 36300 | – |
| CC(OC(=O)OC1CCCCC1C)OC(=O)C1=C(CSc2nnnn2CCN(C)C)CS[C@@H]2[C@H](NC(=O)Cc3csc(N)n3)C(=O)N12 (stereo partly drawn) [Example 2-11] | 35400 | – |
| CCOC(=O)OC(C)OC(=O)C1=C(CSc2nnnn2CCN(C)C)CS[C@@H]2[C@H](NC(=O)Cc3csc(N)n3)C(=O)N12 (stereo partly drawn) [A, 1-(ethoxycarbonyloxy)ethyl 78-[2-(2-aminothiazol-4-yl)acetamido]-3-[[[1-(2-dimethylaminoethyl)-1H-tetrazol-5-yl]-thio]methyl]ceph-3-em-4-carboxylate, reference compound] | 9280 | – |
| CC(OC(=O)OC1CCCCC1C)OC(=O)C1=C(CSc2nnnn2CCN(C)C)CSC2C(NC(=O)Cc3csc(N)n3)C(=O)N12 (stereo not drawn) [Example 2-13] | – | AUC ([1]; 100 mg/kg): 36100 ng·h/mL |
| CC(C)[C@@H]1CC[C@@H](C)C[C@H]1OC(=O)OCOC(=O)C1=C(CSc2nnnn2CCN(C)C)CS[C@@H]2[C@H](NC(=O)Cc3csc(N)n3)C(=O)N12 [Example 1-6] | 29400 | – |
| CN(C)CCn1nnnc1SCC1=C(C(=O)O)N2C(=O)[C@@H](NC(=O)Cc3csc(N)n3)[C@H]2SC1 [compound[II], 7β-[2-(2-aminothiazol-4-yl)acetamido]-3-[[[1-(2-dimethylaminoethyl)-1H-tetrazol-5-yl]thio]methyl]-ceph-3-em-4-carboxylic acid] | – | antibacterial activity [2]: potent antibacterial activity; antibacterial activity [3]: potent antibacterial activity; Bioavailability [4]: 100%; antibacterial activity [5]: potent antibacterial activity; antibacterial activity [6]: potent antibacterial activity; antibacterial activity [7]: potent antibacterial activity; antibacterial activity [8]: potent antibacterial activity |

— patent US5120841A, “Cephalosporin ester derivatives” (Takeda Chemical Industries, Ltd., priority 1983, dated 1992)
